# “Also recorded” adds a separate entry of the source.
# Key:
# THP-1 human monocytes = assay: Measurement of cellular NAD^+ levels in THP-1 cell cultures (NAD/NADH-Glo); format: cell-based; details: for potency in THP-1 relative to NP-A3-B2 (cellular EC50 not quantifiable): dose response studies; for ability to raise NAD^+ levels compared to the parent compound NP-A3-B2: initial screening, 3 μM, 24 hours, data not shown
# Experimental: Measurement of cellular NAD^+ levels in THP-1 cell cultures. Using FK-866 and NMN as negative and positive controls, respectively, we explored a number of cell lines to select a highly reproducible model system with good dynamic range. We optimized a commercial NAD-glo assay in the THP-1 human leukemic monocyte cell line in 96-well plates, measuring NAD^+ after incubation with test compounds for 24 hours. […] All cells were grown at 37° C., under 5% CO2 in a humidified incubator. Low passage THP-1 cells (37,500 cells/well) were seeded in 96-well plates and incubated at 37° C. and 5% CO2 for 1½ h prior to a 24 h treatment. All compounds were dissolved in DMSO, and final DMSO concentrations never exceeded 1%. The NAD^+ levels in the cells are measured using the NAD^+/NADH-Glo™ assay (Promega). The assays were performed in triplicate for each concentration and the IC50 values were determined from non-linear regression analysis of the dose-response curve generated in GraphPad Prism 9.
# GMC101 worms = details: 1 mM, 1-8 days; Sorrentino, V. et al. 2017; cited from earlier work
# APPSwe/PSEN1dE9 mice = details: 400 mg/kg/d (p.o.) 10 weeks; Sorrentino, V. et al. 2017; cited from earlier work
# [1] = tested on: Tg2576/PGC-1α knockout mice; details: 250 mg/kg/d (p.o) 3 months; Gong, B. et al. 2013; cited from earlier work
# [2] = tested on: 3xTgAD, and 3xTgAD/Polβ^+/− mice; details: 12 mM in drinking water p.o. 6 months; Hou, Y. et al. 2018; cited from earlier work
# [3] = tested on: hSOD1^G93A mouse derived astrocytes and motor neurons; details: NR or NMN, 5 mM, 24-72 h; Harlan, B. A. et al. 2019; cited from earlier work
# Csb^m/m mice = details: 500 mg/kg/d (i.p.) 1 week; Scheibye-Knudsen, M. et al. 2014; cited from earlier work
# [4] = tested on: HT-22 mouse hippocampal cell line; assay: TNFα-induced ROS in HT-22 cells (MitoSOX); format: cell-based; details: for effect on ROS levels across tested concentrations: screened against 1 μg/mL TNFα (FIG. 2A)
# Experimental: (§1) Cell Culture and Drug Treatments. HT22 mouse hippocampal neuronal cells (a gift from the Salk Institute) were grown in Dulbecco's modified Eagle's medium (DMEM) containing 10% FBS and 1× Antibiotic-Antimycotic (ABAM). Cells were maintained in a humidified 5% CO2 atmosphere incubator at 37° C., and were passaged when 60-80% confluent (1-2 days) by removing media, rinsing with phosphate buffered saline (PBS), and enzymatically detaching with trypsin solution. New culture dishes were seeded with ¼ to ½ the cells from the previous dish.
# All assays were performed using cells with passage number 12-50. The inner 60 wells of black-walled (Corning®3603/3604) 96-well plates were treated with poly D-lysine (30 μL/well) making sure to cover the entire well surface for 15-30 seconds and then washed thoroughly with sterile water (3×−200 μL/well). TNFα stock solutions (10 μg/mL, PBS (0.1% BSA)) were made, aliquoted, and stored at −80° C. Glutamate stock solutions were made fresh immediately before assay. All compound stock solutions (10 mM, DMSO) were made and stored at −20° C.
# Cells were plated at a seeding density of 3,000-5,000 cells/well and allowed to incubate overnight. The next day (18-24 hours later) cells were pretreated with N-PAMs, carefully ensuring equivalent vehicle (DMSO/PBS) composition in each well. After 18-24 hours, stressors (glutamate or TNFα) were treated. Live cell count, ROS level, and total cell count were then assessed after another 18-24 hours.
# ROS Detection. ROS levels were quantified using MitoSOX Red Mitochondrial Superoxide Indicator (Invitrogen). At treatment endpoint, the cell culture media was removed and replaced with phosphate buffered saline (PBS) containing 1 μM calcein-AM, 5 μM MitoSOX, and 10 μg/mL Hoechst dyes. Cells were incubated for 30-45 minutes and then dye-containing PBS was dumped and replaced with 100 μL/well fresh PBS. The plate was immediately analyzed in the Celigo Imaging Cytometer using the Live-Dead-Total protocol, where MitoSOX was used in place of propidium iodide. The cell counts and fluorescence intensities for living (calcein), MitoSOX-stained, and total (Hoechst) were acquired. MitoSOX average mean fluorescence intensity (“dead” average mean intensity) was used to quantify mitochondrial ROS. All readouts used were transformed into fold-change over vehicle treatment for visualization.
# We set out to design assays representing the connection between OS and the multifaceted pathophysiology of aging and ND. We assessed multiple treatments in several cell lines to model OS induced by diverse factors such as neuroinflammatory signaling, neurotransmitter signaling, and direct oxidant species. Assay development highlighted the neuronal HT-22 mouse hippocampal cell line as most robust for these purpose s, and inflammatory cytokine TNFα as being a reliable and disease-relevant method for inducing ROS generation.
# NAMPT = biological target: T1, NAMPT (Homo sapiens, UniProt P43490); assay: NAMPT coupled enzyme activity assay (HTS coupled three-enzyme assay); format: biochemical; details: dose-response (FIG. 1B)
# T1 construct: His6 (C); made in house
# T1 sequence (P43490 whole entry): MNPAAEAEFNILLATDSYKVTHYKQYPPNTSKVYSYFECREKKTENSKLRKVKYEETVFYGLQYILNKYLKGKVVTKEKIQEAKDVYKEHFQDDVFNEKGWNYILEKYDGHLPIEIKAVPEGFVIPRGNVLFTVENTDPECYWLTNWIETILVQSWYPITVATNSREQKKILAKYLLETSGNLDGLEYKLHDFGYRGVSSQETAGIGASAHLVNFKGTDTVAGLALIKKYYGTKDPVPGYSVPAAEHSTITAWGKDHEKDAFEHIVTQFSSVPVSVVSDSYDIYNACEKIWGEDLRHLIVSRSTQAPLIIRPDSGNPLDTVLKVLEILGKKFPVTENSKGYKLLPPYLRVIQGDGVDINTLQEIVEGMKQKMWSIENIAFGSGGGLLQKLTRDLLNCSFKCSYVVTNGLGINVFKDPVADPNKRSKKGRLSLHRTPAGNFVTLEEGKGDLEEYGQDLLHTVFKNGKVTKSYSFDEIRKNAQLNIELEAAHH
# Source text: NAMPT coupled enzyme activity assay. The NAMPT enzyme assay is based on conditions from Burgos and Schramm and adapted to include a cycling reaction to quantitate NAD^+ production colorimetrically^1. The assay follows the NAMPT-catalyzed production of NMN from substrates NAM and PRPP by coupling NMN formation to the NMNAT reaction, which produces NAD^+ from NMN and ATP. The NAD^+ is then cycled by alcohol dehydrogenase (ADH) and diaphorase to continuously produce WST-1 formazan, which can be detected at 450 nm. Assays are performed at 25° C. in clear 384-well plates, with a final assay volume of 30 μL, and contain the following: 50 mM HEPES, pH 7.5, 5 mM MgCl2, 50 mM NaCl, 0.01% Triton-X 100, 2.5 mM ATP, 40 μM PRPP, 1-500 μM NAM, 1.5 μL WST-1 (Roche Cell Proliferation Reagent), 1 U/mL ADH, 0.083 U/mL diaphorase, 1.5% ethanol, 1% DMSO, 30 nM NAMPT, and 7.4 nM purified human NMNAT1. N-terminal His6-NMNAT1 and C-terminal His6-NAMPT were overexpressed and purified by metal chelate affinity chromatography. Following assay assembly, well signals were measured continuously at 450 nm on a Tecan Infinite M200 plate reader for 1 h with intermittent shaking. Slopes of the linear portions of the reaction progress curves were recorded and corrected for background by subtracting the average slope of control wells containing NAMPT inhibitor FK866.
# A high-throughput screen (HTS) of 22,000 compounds was performed to identify those that augment NAMPT enzymatic activity^38. Screening used a coupled three-enzyme assay to detect conversion of NAM to NAD^+, as previously described by our group^37. […] We also established assays in which to assess the ability of our compounds to mitigate neuronal oxidative stress.
# [5] = tested on: HT-22 mouse hippocampal cell line; assay: Glutamate-induced ROS in HT-22 cells (MitoSOX); format: cell-based; details: 75 mM glutamate
# Experimental: as §1
# All assays were performed using cells with passage number 12-50. […]
# Cells were plated at a seeding density of 3,000-5,000 cells/well and allowed to incubate overnight. […] Live cell count, ROS level, and total cell count were then assessed after another 18-24 hours.
# ROS Detection. ROS levels were quantified using MitoSOX Red Mitochondrial Superoxide Indicator (Invitrogen). […] The plate was immediately analyzed in the Celigo Imaging Cytometer using the Live-Dead-Total protocol, where MitoSOX was used in place of propidium iodide. The cell counts and fluorescence intensities for living (calcein), MitoSOX-stained, and total (Hoechst) were acquired. MitoSOX average mean fluorescence intensity (“dead” average mean intensity) was used to quantify mitochondrial ROS. All readouts used were transformed into fold-change over vehicle treatment for visualization.
# [6] = dose response study, 30 μM (FIG. 1A)
smiles,measurement,setting,value
"COc1ccc(CN(CCC2(C(C)C)CCOC(C)(C)C2)C(=O)c2ccsc2)cc1 (stereo not drawn) [JGB-1-127, N-(2-(4-isopropyl-2,2-dimethyltetrahydro-2H-pyran-4-yl)ethyl)-N-(4-methoxybenzyl)thiophene-3-carboxamide]",potency in THP-1 relative to NP-A3-B2 (cellular EC50 not quantifiable),THP-1 human monocytes,improved potency
same,ability to raise NAD^+ levels compared to the parent compound NP-A3-B2,THP-1 human monocytes,significantly greater ability to raise NAD^+ levels
NC(=O)c1ccc[n+]([C@@H]2O[C@H](CO)[C@@H](O)[C@H]2O)c1 [NR],health- and lifespan of worms,GMC101 worms,Increased health-
same,proteotoxicity and aggregation of Aβ,GMC101 worms,Reduced
same,Aβ aggregation,APPSwe/PSEN1dE9 mice,Reduced Aβ
same,impaired memory,APPSwe/PSEN1dE9 mice,Enhanced
same,mitochondrial function,APPSwe/PSEN1dE9 mice,Improved
same,NAD^+ levels and PGC-1α expression,[1],Increased NAD^+
same,cognitive (novel object recognition) performance,[1],Improved
same,synaptic plasticity,[1],Improved synaptic
same,NAD^+/NADH ratio,[2],Increased
same,"learning, memory, motor function, and anxiety",[2],Improved
same,neurogenesis,[2],Increased
same,neuroinflammation,[2],Decreased
same,p-Tau levels,[2],Decreased p-Tau
same,synaptic plasticity,[2],Restored synaptic
same,Nrf2 mediated Antioxidant Response Element activation,[3],Increased Nrf2
same,"cerebellar NAD^+ ATP, mitochondrial function",Csb^m/m mice,Rescued
same,"gene profile associated with oxidative stress, DNA repair, mitochondrial function",Csb^m/m mice,Normalized gene
"COc1ccc(CN(CCC2(C(C)C)CCOC(C)(C)C2)C(=O)c2cccs2)cc1 (stereo not drawn) [JGB-1-137, N-(2-(4-isopropyl-2,2-dimethyltetrahydro-2H-pyran-4-yl)ethyl)-N-(4-methoxybenzyl)thiophene-2-carboxamide]",NAD^+ production in THP-1,"THP-1 human monocytes; SAR summary, thiophene replacement of the R^2 furan (FIGS. 4 and 5)",significantly improved NAD^+ production
same,potency in THP-1 relative to NP-A3-B2 (cellular EC50 not quantifiable),THP-1 human monocytes,improved potency
same,ability to raise NAD^+ levels compared to the parent compound NP-A3-B2,THP-1 human monocytes,significantly greater ability to raise NAD^+ levels
same,effect on ROS levels across tested concentrations,[4],dose-dependent downward trend in ROS levels
"COc1ccc(CN(CCC2(C(C)C)CCOC(C)(C)C2)C(=O)c2cnc[nH]2)cc1 (stereo not drawn) [JGB-1-147, N-(2-(4-isopropyl-2,2-dimethyltetrahydro-2H-pyran-4-yl)ethyl)-N-(4-methoxybenzyl)-1H-imidazole-5-carboxamide]",IC50,NAMPT; NAMPT inhibition,5.32 µM
same,Amax,NAMPT,0.25 fold
same,effect on NAMPT activity,NAMPT,inhibitory activity; also recorded: inhibits NAMPT
O=C(NCc1ccncc1)Nc1ccc(S(=O)(=O)N2CC3CCC(C2)O3)cc1 [SBI-797812],effect on ROS levels across tested concentrations,[4],no significant effects on ROS at any concentration tested
"CC(C)C1(CCN(Cc2ccc(N(C)C)cc2)C(=O)c2ccco2)CCOC(C)(C)C1 (stereo not drawn) [JGB-1-155, N-(4-(dimethylamino)benzyl)-N-(2-(4-isopropyl-2,2-dimethyltetrahydro-2H-pyran-4-yl)ethyl)furan-2-carboxamide]",EC50,NAMPT; NAMPT activation,3.41 µM
same,activity in THP-1,THP-1 human monocytes; SAR summary (FIGS. 4 and 5),improved activity
same,potency in THP-1 relative to NP-A3-B2 (cellular EC50 not quantifiable),THP-1 human monocytes,improved potency
same,NAD^+ fold over control,THP-1 human monocytes; [6],1.88 fold
same,increase in NAD^+ over control,THP-1 human monocytes; [6],88%
same,ability to raise NAD^+ levels compared to the parent compound NP-A3-B2,THP-1 human monocytes,significantly greater ability to raise NAD^+ levels
same,ROS attenuation relative to other analogs and the hit,[4]; 1 μg/mL TNFα (FIG. 2A),outperformed all other analogs and the hit in ROS attenuation
same,activity in HT-22,"[4]; SAR summary, over the 4-methoxy compounds (FIGS. 4 and 5)",improved activity
same,reduction of TNFα-induced ROS,"[4]; further replicates, 20 μM and 40 μM (FIG. 2B)",highly significant reduction of TNFα-induced ROS
same,effect on ROS levels across tested concentrations,[4],dose-dependent downward trend in ROS levels
same,ROS-reducing activity against glutamate insult,[5],dose-dependent ROS-reducing activity
same,ROS levels relative to vehicle treated control,[5]; 20 μM and 40 μM (FIG. 2D),decreased ROS levels below that of the vehicle treated control
"CC(C)C1(CCN(Cc2ccc3[nH]ccc3c2)C(=O)c2ccco2)CCOC(C)(C)C1 (stereo not drawn) [JGB-1-134, N-((1H-indol-5-yl)methyl)-N-(2-(4-isopropyl-2,2-dimethyltetrahydro-2H-pyran-4-yl)ethyl)furan-2-carboxamide]",ability to raise NAD^+ levels compared to the parent compound NP-A3-B2,THP-1 human monocytes,significantly greater ability to raise NAD^+ levels
same,effect on ROS levels at 40 μM,"[4]; 1 μg/mL TNFα, 40 μM compound (FIG. 2A)",trended toward ROS mitigation
same,effect on ROS levels across tested concentrations,[4],little effect until 40 μM

# Source: patent publication US12552760B2, “Compounds for increasing the nicotinamide adenine dinucleotide in a subject and methods of use thereof” (The Board of Trustees of the University of Illinois, priority 2022, dated 2026)
